# Test results published in patent publication US7101854B2, “Tetrapeptide stimulating the functional activity of hepatocytes, pharmacological substance on its basis and the method of its application” (Sankt-Peterburgskaya Obschestvennaya Organizatsiya …, priority 2000, dated 2006).
# Residues, ends and D or L forms follow the SMILES beside them.
# What was measured:
# hepatoma-27 = test: Growth of transplanted hepatoma-27 in rats; format: in vivo; details: for Mean life span (days after the tumour transplantation): rats with hepatoma-27; for Tumour growth: tetrapeptide 1 μg/kg s.c. 10 days, stabilised since 30th day, cyclophosphamide 100 μg/kg i.p. once, from 16th day; for Animals with complete tumour resolution: tetrapeptide: days 16, 25, 43, cyclophosphamide: days 28, 32, 41 after transplantation
# Procedure: The study was performed on 37 female rats weighing 150-200 g with hepatoma-27 subcutaneously transplanted to the right femur region. […] Cyclophosphamide administered once intraperitoneally in the dose of 100 μg/kg was employed as a positive control. The tumour dynamics and animals' survival rate were assessed in experiments.
# white mongrel rats = test: Subacute toxicity, daily intramuscular injection for 90 days; format: in vivo; details: i.m. 1 μg/kg, 0.3 mg/kg, 3 mg/kg daily for 90 days
# Procedure: The animals were intramuscularly injected with the preparation once a day in the doses of 1 μg/kg, 0.3 mg/kg, 3 mg/kg in 0.5 ml of natural saline solution, daily for 90 days. The control animals were administered with natural saline solution in the same amount.
# The animals were under daily observation during the whole course of investigation. Their behaviour, food and water consumption, state of hair integument and mucous membranes were noted. The rats were weighed weekly. Before the preparation administration and on the 30th, 60th and 90th days thereof the morphological composition and properties of their peripheral blood were examined. Biochemical and coagulological properties of the blood were studied at the experiment completion.
# white mongrel male mice = test: Acute toxicity according to Kerber, single intramuscular administration; format: in vivo
# Excerpt: This study was designed to define the tolerable toxic doses of the preparation, assess the degree and character of pathologic alterations in various organs and systems of the organism and reveal the dependence of toxic effects on the dosage and duration of the preparation intake.
# Examined were 72 white mongrel male mice weighing 20–22 g. The mice were kept in vivarium under standard regimen and fed upon standard rations. They were randomised to six equal groups, 12 mice in each. The animals were once intramuscularly administered with 0.25 ml of the preparation in the doses of 1 mg/kg, 2 mg/kg, 3 mg/kg, 4 mg/kg and 5 mg/kg (several thousand times exceeding the therapeutic dose recommended for clinical trials). The control animals received the same amount of natural saline solution.
# No alterations in their general state, behaviour, motor activity, hair and skin integument, physiological discharge were registered.
# [1] = system: hepatocyte monolayer culture of rats of various ages; test: Intensity of protein synthesis ([3H]-leucin inclusion) in monolayer hepatocyte culture; format: cell-based; details: 0.005 μg/ml, 4 hours
# Procedure: The intensity of protein synthesis was investigated in a hepatocyte culture of rats aged 4, 8 and 18 months.
# To isolate hepatocytes, rat liver was perfused with calcium-free Hanks' solution added 0.5 mM of EDTA and then 0.05% collagenase solution in Medium 199. The cellular suspension was filtered out and centrifuged. The hepatocyte suspension in the concentration of 5×10^5 was introduced into Petri's dishes, their bottoms surfaced with collagen-covered glass. Applied Medium 199 contained no bovine serum but was added 0.2 mg/ml of albumen and 5 μg/ml of insulin. The dishes with glass-covered bottoms were placed in a thermostat at 37° C., aerated and added CO2. […]
# Protein synthesis was assessed by [^3H]-leucin inclusion regarding the standard errors for a free marked leucin pull in the same culture. […] Radioactivity of the pull of free intracellular leucin and cellular proteins (in hyamine fraction) after adding the corresponding scintillators was measured on a radioactivity counter SL-30.
# The intensity of protein synthesis was calculated by the formula: Icorr=Ii×Pav/Pi(cpm), where
# Icorr—inclusion of leucin regarding the standard errors of free leucin pull, Ii—measured radioactivity of the proteins for i-culture, Pav—mean radioactivity of proteins and pull for the cultures studied in this experiment, Pi—total radioactivity of proteins and pull of the same culture.
# [2] = system: rats with acute toxic hepatitis; test: Acute toxic hepatitis induced by CCl4 in rats
# Procedure: Freshly made solution heated to 30–35° C. was introduced into the femoral region at the ratio of 0.5 ml per 100 g of the animal's body weight, daily for 5 days.
# In 5 days after the tetrapeptide administration completion, the rats were euthanaised and the investigation results were assessed.
# In 20 days after the experiment onset, the rats were euthanaised.
# The control animals received natural saline injections according to the same plans.
# The state of the animals' liver was assessed by the data of biochemical analysis defining the concentration of protein, bilirubin, cholesterol, alanine aminotransferase (ALT) and aspartate aminotransferase (AST).
# Tissue bits were fixed in 10% formalin solution in a 0.1M sodium phosphate buffer (pH 7.4). The histological preparations were stained with haematoxylin-eosin, staining for fat was performed with Sudan-3 and for glycogen—according to McManus.
# [3] = system: liver fragments of 10–11-days old chicken embryos; test: Development of liver explants (square index); format: cell-based; details: 20 ng/ml, third day of cultivation
# Procedure: The experiments were carried out in 53 liver fragments of 10–11-days old chicken embryos. Nutrient medium for the explant cultivation consisted of 35% of Eagle's solution, 25% of foetal calf serum, 35% of Hank's solution and 5% of chicken embryonic extract. The mixture is added glucose (0.6%), insulin (0.5 unit/ml), penicillin (100 unit/ml) and glutamine (2 mM). The liver fragments were placed in this medium and cultivated in Petri's dishes in a thermostat at 36.7° C. during 48 hours. […] Square index (SI) was taken for a biological activity criterion and calculated as a correlation of the total explant square including the growth zone to the initial square of a liver fragment. The SI values were expressed per cent, the control SI value taken for 100%.
# [4] = system: patients with chronic persistent hepatitis; test: Clinical application in patients with chronic persistent hepatitis; format: in vivo, human
# Procedure: The trial was carried out on 23 patients aged 32–53 years. The disease duration constituted 10–20 years. 79% of the patients had virus hepatitis A in the case history and 11%—virus hepatitis B. The majority of the patients complained of pains in the right hypochondrium, general weakness and quick fatigability. 45% of the patients noted dyspeptic disorders. All the patients had previously received periodic conventional medications.
# The control group included 12 analogous patients treated by conventional methods.
# The patients' complaints were assessed in dynamics. Performed were total blood and urine counts, biochemical blood investigation (“REFLOTRON”, Boehringer Mannheim, Germany) and immune assay of the peripheral blood (definition of Ig according to Mancini). Ultrasound investigation of-the liver was carried out on an ultrasound apparatus (ALOKA, Japan). Against the background of the applied treatment 93% of the patients noted weakness elimination, improved appetite and increased workability. […] The biochemical test results were in the focus of attention during the patients' examination. They reflected aminotransferase activity, pigment- and protein-forming functions of the liver. 72% of the patients registered hyperbilirubinemia, increased level of alanine aminotransferase (ALT) and slight rise in γ-globulin fraction of the blood proteins, chiefly, due to IgM, which evidenced a certain activity of the chronic inflammatory process.
# rats = test: Chronic toxicity, daily intramuscular injection for 6 months; format: in vivo; details: i.m. 1 μg/kg, 0.1 mg/kg, 1 mg/kg daily for 6 months
# Procedure: The animals were intramuscularly injected with the preparation in the doses of 1 μg/kg, 0.1 mg/kg, 1 mg/kg in 0.5 ml of natural saline solution, daily for 6 months. Their behaviour, food and water consumption, state of hair integument and mucous membranes were noted. The rats were weighed daily during the first three months of the experiment and then once a month. In three months after the administration onset and at the experiment completion, haematological and biochemical investigations were conducted. The functions of the cardiovascular system, liver, pancreas, kidneys and adrenal glands were assessed. At the end of the tetrapeptide administration, part of the animals were subjected to a post mortem examination to assess the state of various segments of their brain and spinal marrow, heart, aorta, lungs, liver, kidneys, endocrine and immune organs.
# [5] = Day 5, 1 μg i.m. for 5 days accompanying CCl4 impact
# [6] = Day 20, 1 μg i.m. daily for 15 days after CCl4 impact
# [7] = Day 20, tetrapeptide after CCl4 impact
# [8] = after treatment, i.m. once a day 0.01–100 μg/kg, 10–40 days
# [9] = against the background of the applied treatment
compound,measurement,setting,value
"O=P1(N(CCCl)CCCl)NCCCO1 (centres unmarked) [Cyclophosphamide, reference compound]",Mean life span (days after the tumour transplantation),hepatoma-27,61.50 ± 4.58 days
same,Tumour growth,hepatoma-27,stable decrease in the tumour growth rate
same,Animals with complete tumour resolution,hepatoma-27,three
"C[C@H](NC(=O)[C@H](CC(=O)O)NC(=O)[C@H](CCC(=O)O)NC(=O)[C@@H](N)CCCCN)C(=O)O [Lys-Glu-Asp-Ala tetrapeptide, lysyl-glutamyl-aspartyl-alanine] (H-KEDA-OH)","Pathologic alterations (general state, blood indices, organs, liver and kidney functions), subacute toxicity",white mongrel rats,no pathologic alterations
same,Acute toxic reactions,white mongrel male mice; doses several thousand times exceeding the therapeutic one,does not entail any acute toxic reactions
same,Death of animals,"white mongrel male mice; single intramuscular 1, 2, 3, 4, 5 mg/kg, 72 hours and 14 days",none of the animals died
same,Protein synthesis oscillation amplitude,[1]; hepatocytes of older rats,increased significantly
same,Level of protein synthesis in hepatocytes,"[1]; rats aged 4, 8 and 18 months, strongest effect in cells of older animals",raised the level of protein synthesis
same,Tumour size relative to controls (times less),"hepatoma-27; 30th day, 1 μg/kg s.c. daily for 10 days",2.5 times
same,Mean life span (days after the tumour transplantation),hepatoma-27,68.00 ± 1.23 days
same,Tumour growth,hepatoma-27,stable inhibition of the tumour growth
same,Proportion of ulcer-bearing animals,"hepatoma-27; tetrapeptide from the 39th day after transplantation, cyclophosphamide only on the 43rd day",significant decrease in the proportion of ulcer-bearing animals
same,Animals with complete tumour resolution,hepatoma-27,Three
same,ALT,[2]; [5],35.3 ± 3.8 international units per ml
same,AST,[2]; [5],35.6 ± 4.3 international unit per ml
same,Cholesterol,[2]; [5],4.1 ± 0.25 mm/l
same,Protein (blood),[2]; [5],77.8 ± 3.7 g/L
same,Total bilirubin,[2]; [5],12.5 ± 2.1 µmol/L
same,Hepatocytes with fat inclusions,"[2]; Day 5, tetrapeptide accompanying CCl4 impact",49.8 ± 6.3 %
same,ALT,[2]; [6],5.3 ± 0.98 international units per ml
same,AST,[2]; [6],11.3 ± 1.9 international unit per ml
same,Cholesterol,[2]; [6],4.2 ± 0.35 mm/l
same,Protein (blood),[2]; [6],83.4 ± 3.4 g/L
same,Total bilirubin,[2]; [6],14.8 ± 3.2 µmol/L
same,Hepatocytes with fat inclusions,[2]; [7],10.0 ± 2.1 %
same,Hepatocytes with glycogen synthesis,[2]; [7],90.0 ± 8.1 %
same,Hepatocytes with negative staining for fat,"[2]; Day 20, tetrapeptide for 15 days after CCl4 impact",90%
same,"Concentration of protein, bilirubin, cholesterol and aminotransferases in the blood",[2]; tetrapeptide during 15 days after the end of CCl4 impact,restored to the normal values
same,Increase in the explant square index (SI) compared to control,[3],24%
same,IgA,[4]; after treatment,2.30 ± 0.07 g/L
same,IgG,[4]; after treatment,13.9 ± 0.9 g/L
same,IgM,[4]; after treatment,1.50 ± 0.03 g/L
same,ALT (peripheral blood),[4]; [8],40.8 ± 3.1 mmol/L
same,AST (peripheral blood),[4]; [8],38.5 ± 2.4 mmol/L
same,Bilirubin (peripheral blood),[4]; [8],21.7 µM
same,Cholesterol (peripheral blood),[4]; [8],5.1 ± 0.3 mmol/L
same,GGT (peripheral blood),[4]; [8],41.6 ± 4.5 mmol/L
same,Triglycerides (peripheral blood),[4]; [8],2.2 ± 0.2 mmol/L
same,"Patients noting weakness elimination, improved appetite and increased workability",[4]; [9],93%
same,Patients with significantly lower intensity of the pain syndrome,[4]; [9],51%
same,"Pathologic alterations (general state, blood indices, organs, liver and kidney functions), chronic toxicity",rats,no pathologic alterations
